Measured values reported in EP0624588A1, “New quinoline derivatives with pharmacological activity” (J. URIACH & CIA. S.A., priority 1993, dated 1994).

Columns and labels:
[1] = tested on: platelet aggregation induced by PAF; assay: Inhibition of platelet aggregation induced by PAF; assay type: cell-based, New Zealand albino rabbits; conditions: Oryctolagus cuniculus; rabbit platelet rich plasma, PAF (C₁₈) 15 nM, Born nephelometric technique; read-out: IC₅₀
Method: Blood is obtained by cardiac puncture of male New Zealand albino rabbits (b.w. 2-2.5 Kg) and coagulation is prevented by adding 1 part of 3.16% sodium citrate dihydrate in 9 parts of blood. Platelet rich plasma (PRP) is prepared by centrifuging the blood at 250xg for 10 min. at 4°C and then it is diluted with platelet poor plasma (PPP) obtained by further centrifuging at 3000xg for 10 min. The platelet count is adjusted to 3x10⁵/mm³. Platelet aggregation induced by PAF (C₁₈, prepared in our laboratory) (15 nM) is determined by the Born nephelometric technique (J. Physiol., 1962, 162, 67) using an aggregometer Chrono-log 500. The activities of the inhibitors are expressed as the IC₅₀ value, that is to say the concentration of drug needed to inhibit platelet aggregation by 50%.

[2] = tested on: LTB₄ production by human granulocytes (HL-60 cells); assay: Inhibition of LTB4 production by human granulocytes; assay type: cell-based; conditions: differentiated HL-60 cells stimulated by calcium ionophore A23187 (5 x 10⁻⁶M), LTB₄ by EIA, read-out: % inh. of LTB₄ production (at 5 µM)
Method: Human promyelocytes (HL-60 cells) are grown in a RPMI 1640 medium suplemented with 20% heat-inactivated fetal bovine serum, 50 U/mL penicillin and 50 µg/mL streptomycin under an atmosphere of 5% CO₂ at 37°C. Cells are exposed to 1.3% DMSO for 5 days in order to differentiate them into mature granulocytes and then are washed and resuspended in Dubelcco's phosphate-buffered saline at 10⁶ cells/mL. HL-60 (10⁶ cells/mL) are incubated for 15 min at 37°C in the presence or absence (vehicle only) of test compound. Cells are then stimulated by calcium ionophore A23187 (5 x 10⁻⁶M) for 15 min. LTB₄ secreted into the external medium is measured by EIA (enzymo immunoassay) using a commercially available LTB₄-EIA kit. Results are expressed as the percent inhibition of LTB₄ production as compared to controls.

| Compound | IC50 [1] | inhibition at 5 µM [2] |
| --- | --- | --- |
| Cc1nnc2n1-c1sc3c(c1C(c1ccccc1Cl)=NC2C)CCN(C(=O)c1cccc(OCc2ccc4ccccc4n2)c1)C3 (stereo not drawn) [Compound 1, 6-(2-Chlorophenyl)-1,4-dimethyl-9-[3-(2-quinolylmethoxy)benzoyl]-7,8,9,10-tetrahydro-4H-pyrido[4',3': 4,5]thieno[3,2-f] [1,2,4]triazolo[4,3-a] [1,4]diazepine] | 32 nM | 72% |
| Cc1nnc2n1-c1sc3c(c1C(c1ccccc1Cl)=NC2C)CCN(C(=O)Cc1ccc(OCc2ccc4ccccc4n2)cc1)C3 (stereo not drawn) [Compound 2, 6-(2-Chlorophenyl)-1,4-dimethyl-9-[4-(2-quinolylmethoxy)phenylacetyl]-7,8,9,10-tetrahydro-4H-pyrido[4',3': 4,5]thieno[3,2-f] [1,2,4]triazolo[4,3-a] [1,4]diazepine] | 16 nM |  |
